Experiments:
Assay in all cases: combination Emax (second highest fraction inhibited in the dose matrix, 72 h); higher = more inhibition; extreme values may be limits of the assay
[1] = system: LB996-RCC (Kidney Carcinoma)
Outline: (§1)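 Bliss excess equals the observed combination effect minus the expected value EA + EB − EA·EB, where EA and EB are the effects of each agent alone. Combination Emax is the second-highest inhibition within the matrix. Inhibition was scaled from CellTiter-Glo 2.0 luminescence, with 0 set by vehicle wells and 1 by blank wells, after 72 hours of two-drug dosing of cells plated in 1536-well plates.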

[2] = system: GP5d (Colorectal Carcinoma)
Outline: as §1

[3] = system: PSN1 (Pancreatic Carcinoma)
Outline: as §1

SF268 (Low Grade Glioma) = system: SF268 (Low Grade Glioma)
Outline: as §1

[4] = system: OPM-2 (Plasma Cell Myeloma)
Outline: as §1

[5] = system: HSC-39 (Gastric Carcinoma)
Outline: as §1

LN-229 (Glioblastoma) = system: LN-229 (Glioblastoma)
Outline: as §1

[6] = system: RERF-GC-1B (Gastric Carcinoma)
Outline: as §1

[7] = system: NCI-H446 (Small Cell Lung Carcinoma)
Outline: as §1

[8] = system: PC-3_[JPC-3] (Lung Adenocarcinoma)
Outline: as §1

[9] = system: NCI-H2342 (Lung Adenocarcinoma)
Outline: as §1

[10] = system: KE-37 (T-Lymphoblastic Leukemia)
Outline: as §1

[11] = system: RCM-1 (Colorectal Carcinoma)
Outline: as §1

[12] = system: FADU (Head and Neck Carcinoma)
Outline: as §1

[13] = system: L-1236 (Hodgkin's Lymphoma)
Outline: as §1

[14] = system: LXF-289 (Lung Adenocarcinoma)
Outline: as §1

[15] = system: SK-PN-DW (Other Solid Carcinomas)
Outline: as §1

[16] = system: HEC-1 (Endometrial Carcinoma)
Outline: as §1

[17] = system: VAL (B-Cell Non-Hodgkin's Lymphoma)
Outline: as §1

[18] = system: HCT-15 (Colorectal Carcinoma)
Outline: as §1

Row | Structure (SMILES) | combination Emax [1] | combination Emax [2] | combination Emax [3] | combination Emax (SF268 (Low Grade Glioma)) | combination Emax [4] | combination Emax [5] | combination Emax (LN-229 (Glioblastoma)) | combination Emax [6] | combination Emax [7] | combination Emax [8] | combination Emax [9] | combination Emax [10] | combination Emax [11] | combination Emax [12] | combination Emax [13] | combination Emax [14] | combination Emax [15] | combination Emax [16] | combination Emax [17] | combination Emax [18]
1 | COc1cc2c(cc1OCCCCCOc1cc3c(cc1OC)C(=O)N1C=C(C)C[C@H]1C=N3)N=C[C@@H]1CC(C)=CN1C2=O [SG3199] + O=C(c1cc(Cc2n[nH]c(=O)c3ccccc23)ccc1F)N1CCN(C(=O)C2CC2)CC1 [Olaparib] (first compound max 0.001 µM, 7x7, partner max 10 µM) | 0.282 | 0.189 | 0.127 | 0.115 | 0.0651 | 0.185 | 0.0777 | 0.245 | 0.285 | 0.193 | 0.0836 | 0.348 | 0.0628 | 0.115 | 0.196 | 0.119 | 0.393 | 0.176 | 0.57 | 0.264
2 | CCc1c2c(nc3ccc(O)cc13)-c1cc3c(c(=O)n1C2)COC(=O)[C@]3(O)CC [SN-38] + CN(C)CCCOc1ccc(-c2ccc3ncc4c(c3c2)n(C2CCOCC2)c(=O)n4C)cn1 [AZD0156] (first compound max 0.3 µM, 7x7, partner max 1 µM) | 0.898 | 0.655 | 0.705 | 0.902 | 0.772 | 0.964 | 0.283 | 0.788 | 0.818 | 0.732 | 0.225 | 1 | 0.86 | 1 | 0.76 | 0.599 | 0.92 | 0.398 | 0.944 | 0.943
3 | C[C@@H](c1ccc2nccn2c1)n1nnc2ncc(-c3cnn(C)c3)nc21 [Savolitinib] + CC1(C)CCC(CN2CCN(c3ccc(C(=O)NS(=O)(=O)c4ccc(NCC5CCOCC5)c([N+](=O)[O-])c4)c(Oc4cnc5[nH]ccc5c4)c3)CC2)=C(c2ccc(Cl)cc2)C1 [Venetoclax] (first compound max 1 µM, 7x7, partner max 1 µM) | 0.0725 | 0.141 | 0.12 | 0.104 | 0.246 | 0.197 | 0.0841 | 0.128 | 0.277 | 0.129 | 0.188 | 0.113 | 0.121 | 0.154 | 0.416 | 0.16 | 0.221 | 0.133 | 0.963 | 0.12
4 | C[C@@H](c1ccc2nccn2c1)n1nnc2ncc(-c3cnn(C)c3)nc21 [Savolitinib] + Cc1c2c(nn1C)CSCc1cc(n(C)n1)CSc1cc(c3ccccc3c1)OCCCc1c(C(=O)O)n(C)c3c-2c(Cl)ccc13 [AZD5991] (first compound max 1 µM, 7x7, partner max 1 µM) | 0.125 | 0.861 | 0.174 | 0.167 | 1 | 0.99 | 0.221 | 0.788 | 0.597 | 0.284 | 0.321 | 0.159 | 0.114 | 0.546 | 0.668 | 0.306 | 0.766 | 0.107 | 0.564 | 0.152
5 | Cn1cnc2c(F)c(Nc3ccc(Br)cc3Cl)c(C(=O)NOCCO)cc21 [Selumetinib] + C=CCn1c(=O)c2cnc(Nc3ccc(N4CCN(C)CC4)cc3)nc2n1-c1cccc(C(C)(C)O)n1 [AZD1775] (first compound max 10 µM, partner max 1 µM) | 0.717 | 0.888 | 0.736 | 0.473 | 0.834 | 0.82 | 0.316 | 0.788 | 0.925 | 0.452 | 0.353 | 0.947 | 0.637 | 0.521 | 0.956 | 0.514 | 0.798 | 0.157 | 0.732 | 0.712
6 | Cn1cnc2c(F)c(Nc3ccc(Br)cc3Cl)c(C(=O)NOCCO)cc21 [Selumetinib] + CC(C)n1c(=O)n(C)c2cnc3cc(F)c(-c4ccc(OCCCN5CCCCC5)nc4)cc3c21 [AZD1390] (first compound max 10 µM, 7x7, partner max 0.3 µM) | 0.181 | 0.683 | 0.738 | 0.139 | 0.192 | 0.201 | 0.153 | 0.368 | 0.262 | 0.159 | 0.0339 | 0.303 | 0.616 | 0.271 | 0.301 | 0.146 | 0.139 | 0.0424 | 0.0806 | 0.155
7 | Cn1cnc2c(F)c(Nc3ccc(Br)cc3Cl)c(C(=O)NOCCO)cc21 [Selumetinib] + CCN(CCO)CCCOc1ccc2c(Nc3cc(CC(=O)Nc4cccc(F)c4)[nH]n3)ncnc2c1 [AZD2811] (first compound max 10 µM, 7x7, partner max 1 µM) | 0.343 | 0.842 | 0.708 | 0.275 | 0.356 | 0.903 | 0.286 | 0.436 | 0.91 | 0.189 | 0.365 | 1 | 0.656 | 0.467 | 0.289 | 0.514 | 0.572 | 0.0639 | 0.678 | 0.28
8 | Cn1cnc2c(F)c(Nc3ccc(Br)cc3Cl)c(C(=O)NOCCO)cc21 [Selumetinib] + C[C@@H]1COCCN1C2=NC(=NC(=C2)C3(CC3)[S@](=N)(=O)C)C4=C5C=CNC5=NC=C4 [AZD6738] (first compound max 10 µM, 7x7, partner max 10 µM) | 0.556 | 0.861 | 0.736 | 0.49 | 0.847 | 0.994 | 0.552 | 0.522 | 0.85 | 0.309 | 0.483 | 0.959 | 0.656 | 0.404 | 0.839 | 0.591 | 0.915 | 0.298 | 0.746 | 0.753
9 | CC(=O)Nc1cccc(-n2c(=O)n(C3CC3)c(=O)c3c(Nc4ccc(I)cc4F)n(C)c(=O)c(C)c32)c1 [Trametinib] + Cc1nc(-c2cn3c(n2)-c2ccc(-c4cnn(C(C)(C)C(N)=O)c4)cc2OCC3)n(C(C)C)n1 [Taselisib] (first compound max 1 µM, 7x7, partner max 10 µM) | 0.955 | 0.907 | 0.946 | 0.484 | 1 | 1 | 0.803 | 0.949 | 0.94 | 0.882 | 0.5 | 0.676 | 0.871 | 0.837 | 0.513 | 0.963 | 0.695 | 0.346 | 0.424 | 0.756
10 | CC1(C)CCC(CN2CCN(c3ccc(C(=O)NS(=O)(=O)c4ccc(NCC5CCOCC5)c([N+](=O)[O-])c4)c(Oc4cnc5[nH]ccc5c4)c3)CC2)=C(c2ccc(Cl)cc2)C1 [Venetoclax] + C1CN(CCC1(C(=O)N[C@@H](CCO)C2=CC=C(C=C2)Cl)N)C3=NC=NC4=C3C=CN4 [Capivasertib] (first compound max 1 µM, 7x7, partner max 3 µM) | 0.471 | 0.557 | 0.218 | 0.273 | 0.925 | 0.956 | 0.086 | 0.335 | 0.561 | 0.168 | 0.248 | 0.695 | 0.367 | 0.155 | 0.644 | 0.204 | 0.882 | 0.102 | 1 | 0.254
11 | CC1(C)CCC(CN2CCN(c3ccc(C(=O)NS(=O)(=O)c4ccc(NCC5CCOCC5)c([N+](=O)[O-])c4)c(Oc4cnc5[nH]ccc5c4)c3)CC2)=C(c2ccc(Cl)cc2)C1 [Venetoclax] + C=CCn1c(=O)c2cnc(Nc3ccc(N4CCN(C)CC4)cc3)nc2n1-c1cccc(C(C)(C)O)n1 [AZD1775] (first compound max 1 µM, partner max 1 µM) | 0.758 | 0.795 | 0.391 | 0.524 | 0.971 | 1 | 0.292 | 0.753 | 0.943 | 0.427 | 0.268 | 1 | 0.698 | 0.491 | 0.865 | 0.575 | 0.955 | 0.182 | 1 | 0.47
12 | CC1(C)CCC(CN2CCN(c3ccc(C(=O)NS(=O)(=O)c4ccc(NCC5CCOCC5)c([N+](=O)[O-])c4)c(Oc4cnc5[nH]ccc5c4)c3)CC2)=C(c2ccc(Cl)cc2)C1 [Venetoclax] + CCN(CCO)CCCOc1ccc2c(Nc3cc(CC(=O)Nc4cccc(F)c4)[nH]n3)ncnc2c1 [AZD2811] (first compound max 1 µM, 7x7, partner max 1 µM) | 0.339 | 0.513 | 0.222 | 0.328 | 0.689 | 0.981 | 0.208 | 0.298 | 0.894 | 0.182 | 0.217 | 1 | 0.372 | 0.219 | 0.718 | 0.389 | 0.872 | 0.16 | 1 | 0.178

Source: the supplement of paper PMC11061612
